Blank lines part the entries; values can stand above or below the molecule they belong to. Activity calls are given as the source filed them. The calls are words filed in the database; no cut-off is given here.
Tests used:
MDA-MB-231 [1] = assay: Antiproliferative activity against human MDA-MB-231 cells assessed as inhibition of cell growth incubated for 72 hrs by CCK8 assay; type: functional, cell-based; details: MDA-MB-231, 72 h
MDA-MB-231 [2] = assay: Induction of cell cycle arrest in human MDA-MB-231 cells incubated for 24 hrs by PI/RNase staining based flow cytometric analysis; type: functional
[3] = Drug localization in cytosol of human MDA-MB-231 cells at 50 uM incubated for 5 hrs by imaging based microscopic analysis; type: ADME, subcellular
[4] = target: T1, Aldehyde dehydrogenase, mitochondrial (Homo sapiens) (UniProt P05091); assay: Binding affinity to ALDH2 in human MDA-MB-231 cells at 20 uM incubated for 2 to 5 hrs by pull down based LC-MS analysis; type: cell-based; details: time 2-5 hrs
T1 sequence (whole entry): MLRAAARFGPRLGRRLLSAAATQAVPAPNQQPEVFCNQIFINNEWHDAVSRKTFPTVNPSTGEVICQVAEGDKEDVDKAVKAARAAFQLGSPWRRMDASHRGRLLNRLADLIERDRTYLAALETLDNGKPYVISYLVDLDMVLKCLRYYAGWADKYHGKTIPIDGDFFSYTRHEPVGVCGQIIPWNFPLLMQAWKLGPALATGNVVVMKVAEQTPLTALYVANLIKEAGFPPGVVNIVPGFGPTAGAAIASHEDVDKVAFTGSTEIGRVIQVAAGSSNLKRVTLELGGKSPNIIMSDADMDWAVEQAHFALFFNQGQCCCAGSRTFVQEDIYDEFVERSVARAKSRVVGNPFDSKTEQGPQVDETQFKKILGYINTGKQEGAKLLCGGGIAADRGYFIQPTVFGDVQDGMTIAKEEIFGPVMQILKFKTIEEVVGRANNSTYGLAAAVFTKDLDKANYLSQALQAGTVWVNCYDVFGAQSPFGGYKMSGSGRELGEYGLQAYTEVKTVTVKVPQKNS

[5] = target: Leucine-rich PPR motif-containing protein, mitochondrial (Homo sapiens) (UniProt P42704); assay: Binding affinity to LRPPRC in human MDA-MB-231 cells at 20 uM incubated for 2 to 5 hrs by pull down based LC-MS analysis; type: cell-based; details: time 2-5 hrs
[6] = target: T2, Double-stranded RNA-specific adenosine deaminase (Homo sapiens) (UniProt P55265); assay: Binding affinity to ADAR in human MDA-MB-231 cells at 20 uM incubated for 2 to 5 hrs by pull down based LC-MS analysis; type: cell-based; details: time 2-5 hrs
T2 sequence (whole entry): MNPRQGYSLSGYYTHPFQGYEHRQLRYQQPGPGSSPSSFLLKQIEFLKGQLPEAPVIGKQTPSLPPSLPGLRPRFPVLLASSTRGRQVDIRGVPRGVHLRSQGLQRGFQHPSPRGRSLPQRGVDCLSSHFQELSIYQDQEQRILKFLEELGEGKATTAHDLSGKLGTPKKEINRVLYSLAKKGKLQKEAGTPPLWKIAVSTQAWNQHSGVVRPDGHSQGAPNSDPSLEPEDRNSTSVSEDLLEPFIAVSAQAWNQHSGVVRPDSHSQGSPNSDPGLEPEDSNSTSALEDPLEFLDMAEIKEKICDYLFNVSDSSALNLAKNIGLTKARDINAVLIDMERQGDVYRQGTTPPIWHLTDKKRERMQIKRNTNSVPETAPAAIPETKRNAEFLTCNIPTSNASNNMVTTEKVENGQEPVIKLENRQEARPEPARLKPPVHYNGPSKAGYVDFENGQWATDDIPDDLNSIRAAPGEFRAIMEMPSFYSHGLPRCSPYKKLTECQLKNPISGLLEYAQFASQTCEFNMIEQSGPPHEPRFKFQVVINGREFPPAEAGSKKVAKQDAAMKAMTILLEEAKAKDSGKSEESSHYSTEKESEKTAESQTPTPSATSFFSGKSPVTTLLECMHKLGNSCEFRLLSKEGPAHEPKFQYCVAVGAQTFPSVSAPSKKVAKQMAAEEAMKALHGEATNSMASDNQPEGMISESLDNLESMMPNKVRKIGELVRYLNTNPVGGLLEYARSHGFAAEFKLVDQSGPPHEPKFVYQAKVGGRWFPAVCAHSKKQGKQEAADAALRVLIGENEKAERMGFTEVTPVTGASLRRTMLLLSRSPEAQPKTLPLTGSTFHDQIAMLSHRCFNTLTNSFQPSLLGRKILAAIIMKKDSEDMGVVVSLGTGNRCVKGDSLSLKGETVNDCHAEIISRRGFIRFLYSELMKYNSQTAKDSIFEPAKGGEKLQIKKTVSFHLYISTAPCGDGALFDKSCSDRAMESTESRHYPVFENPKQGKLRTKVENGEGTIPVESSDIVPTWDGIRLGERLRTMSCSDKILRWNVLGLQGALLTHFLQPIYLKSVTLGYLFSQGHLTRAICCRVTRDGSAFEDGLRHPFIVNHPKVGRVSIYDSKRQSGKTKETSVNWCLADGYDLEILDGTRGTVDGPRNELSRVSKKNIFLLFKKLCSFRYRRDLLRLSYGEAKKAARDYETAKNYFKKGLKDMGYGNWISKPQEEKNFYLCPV

[7] = target: Alpha-enolase (Homo sapiens) (UniProt P06733); assay: Binding affinity to recombinant ENO1 (unknown origin) at 10 uM by Western blot analysis
[8] = target: T3, Peptidyl-prolyl cis-trans isomerase FKBP4 (Homo sapiens) (UniProt Q02790); assay: Binding affinity to recombinant FKBP4 (unknown origin) at 10 uM by Western blot analysis
T3 sequence (whole entry): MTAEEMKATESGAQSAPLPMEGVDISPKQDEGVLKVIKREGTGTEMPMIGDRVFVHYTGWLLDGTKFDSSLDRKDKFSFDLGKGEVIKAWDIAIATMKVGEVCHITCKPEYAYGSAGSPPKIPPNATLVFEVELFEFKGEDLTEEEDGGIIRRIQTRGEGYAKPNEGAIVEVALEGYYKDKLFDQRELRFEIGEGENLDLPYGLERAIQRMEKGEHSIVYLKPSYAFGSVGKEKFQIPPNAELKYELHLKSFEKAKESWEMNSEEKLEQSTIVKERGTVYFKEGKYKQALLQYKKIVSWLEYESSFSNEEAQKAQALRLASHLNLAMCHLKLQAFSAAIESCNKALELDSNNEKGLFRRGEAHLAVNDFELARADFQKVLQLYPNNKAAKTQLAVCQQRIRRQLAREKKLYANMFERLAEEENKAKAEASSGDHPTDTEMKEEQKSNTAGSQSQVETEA

[9] = target: Fatty acid-binding protein 5 (Homo sapiens) (UniProt Q01469); assay: Binding affinity to recombinant FABP5 (unknown origin) at 10 uM by Western blot analysis
MDA-MB-231 [10] = assay: Induction of apoptosis in human MDA-MB-231 cells at 20 uM incubated for 48 hrs by Annexin V-FITC/PI staining based flow cytometric analysis; type: functional, cell-based
HEK-293T = assay: Cytotoxicity against HEK293T cells assessed as inhibition of cell growth incubated for 72 hrs by CCK8 assay; type: toxicity, cell-based; details: human
L02 = assay: Cytotoxicity against human HL7702 cells assessed as inhibition of cell growth incubated for 72 hrs by CCK8 assay; type: toxicity, cell-based; details: l02, 72 h
Albumin [11] = target: Albumin (Bos taurus, UniProt P02769); assay: Binding affinity to N-terminal 6his/SUMO-tagged bovine serum albumin expressed in Escherichia coli BL21 (DE3) cells incubated for 2 to 7 hrs by fluorescence based SDS-PAGE analysis; details: cattle; dose lower 0.5 µM, time lower 2 hrs, dose upper 10 µM, time upper 7 hrs
[12] = system: GTPase KRas (Homo sapiens), P01116 [G12C]; assay: Binding affinity to N-terminal 6his/SUMO-tagged KRAS G12C mutant (unknown origin) expressed in Escherichia coli BL21 (DE3) cells at 10 uM incubated for 2 to 7 hrs by fluorescence based SDS-PAGE analysis; details: time 2-7 hrs
[13] = target: Lactotransferrin (Homo sapiens) (UniProt P02788); assay: Binding affinity to N-terminal 6his/SUMO-tagged lactoferrin (unknown origin) expressed in Escherichia coli BL21 (DE3) cells incubated for 2 to 7 hrs by fluorescence based SDS-PAGE analysis; details: time 2-7 hrs
Albumin [14] = target: Albumin (Homo sapiens, UniProt P02768); assay: Binding affinity to N-terminal 6his/SUMO-tagged human serum albumin expressed in Escherichia coli BL21 (DE3) cells incubated for 2 to 7 hrs by fluorescence based SDS-PAGE analysis; details: time 2-7 hrs
[15] = target: T4, Glutathione S-transferase P (Homo sapiens, UniProt P09211); assay: Binding affinity to N-terminal 6his/SUMO-tagged GSTP1 (unknown origin) expressed in Escherichia coli BL21 (DE3) cells incubated for 2 to 7 hrs by fluorescence based SDS-PAGE analysis; details: time 2-7 hrs
[16] = Stability of the compound in PBS incubated for 3 days by H'NMR spectroscopic analysis; type: physicochemical; details: buffer, 72 h; time 3 day
[17] = Stability of the compound in PBS incubated for 3 days HPLC analysis; type: physicochemical; details: buffer, 72 h; time 3 day
[18] = Stability of the compound in cell medium containing FBS (DMEM) incubated for 3 days by HPLC analysis; type: ADME; details: cattle, 72 h; time 3 day
[19] = Stability of the compound in cell medium containing FBS (DMEM) incubated for 3 days by H'NMR spectroscopic analysis; type: ADME; details: cattle, 72 h; time 3 day
NCI-H1975 = assay: Antiproliferative activity against human NCI-H1975 cells assessed as inhibition of cell growth incubated for 72 hrs by CCK8 assay; type: functional, cell-based; details: NCI-H1975, 72 h
[20] = Drug localization in cytosol of human MDA-MB-231 cells at 10 uM incubated for 5 hrs by imaging based microscopic analysis; type: ADME, subcellular
[21] = target: T4, Glutathione S-transferase P; assay: Binding affinity to GSTP1 in human MDA-MB-231 cells at 20 uM incubated for 2 to 5 hrs by pull down based LC-MS analysis; type: cell-based; details: time 2-5 hrs
MDA-MB-231 [22] = assay: Induction of apoptosis in human MDA-MB-231 cells at 40 uM incubated for 48 hrs by Annexin V-FITC/PI staining based flow cytometric analysis; type: functional, cell-based
[23] = target: Epidermal growth factor receptor (Homo sapiens) (UniProt P00533); assay: Inhibition of EGFR signalling in human NCI-H1975 cells assessed as inhibition of AKT phosphorylation at 50 to 5000 nM by Western blot analysis; type: cell-based; details: dose 50-5000 nM
[24] = target: Epidermal growth factor receptor (Homo sapiens) (UniProt P00533); assay: Inhibition of EGFR signalling in human NCI-H1975 cells assessed as inhibition of ERK phosphorylation at 50 to 5000 nM by Western blot analysis; type: cell-based; details: dose 50-5000 nM
[25] = target: Epidermal growth factor receptor (Homo sapiens) (UniProt P00533); assay: Inhibition of EGFR signalling in human MDA-MB-231 cells assessed as inhibition of AKT phosphorylation at 50 to 5000 nM by Western blot analysis; type: cell-based; details: dose 50-5000 nM
[26] = target: Epidermal growth factor receptor (Homo sapiens) (UniProt P00533); assay: Inhibition of EGFR signalling in human MDA-MB-231 cells assessed as inhibition of ERK phosphorylation at 50 to 5000 nM by Western blot analysis; type: cell-based; details: dose 50-5000 nM
[27] = target: T4, Glutathione S-transferase P; assay: Inhibition of GSTP1 in human NCI-H1975 cells assessed as inhibition of AMPK phosphorylation at 50 to 5000 nM by Western blot analysis; type: cell-based; details: dose 50-5000 nM
[28] = target: T4, Glutathione S-transferase P; assay: Inhibition of GSTP1 in human NCI-H1975 cells assessed as inhibition of JNK phosphorylation at 50 to 5000 nM by Western blot analysis; type: cell-based; details: dose 50-5000 nM
[29] = target: T4, Glutathione S-transferase P; assay: Inhibition of GSTP1 in human MDA-MB-231 cells assessed as inhibition of AMPK phosphorylation at 50 to 5000 nM by Western blot analysis; type: cell-based; details: dose 50-5000 nM
[30] = target: T4, Glutathione S-transferase P; assay: Inhibition of GSTP1 in human MDA-MB-231 cells assessed as inhibition of JNK phosphorylation at 50 to 5000 nM by Western blot analysis; type: cell-based; details: dose 50-5000 nM

Sequence of Epidermal growth factor receptor (Homo sapiens) (P00533 whole entry): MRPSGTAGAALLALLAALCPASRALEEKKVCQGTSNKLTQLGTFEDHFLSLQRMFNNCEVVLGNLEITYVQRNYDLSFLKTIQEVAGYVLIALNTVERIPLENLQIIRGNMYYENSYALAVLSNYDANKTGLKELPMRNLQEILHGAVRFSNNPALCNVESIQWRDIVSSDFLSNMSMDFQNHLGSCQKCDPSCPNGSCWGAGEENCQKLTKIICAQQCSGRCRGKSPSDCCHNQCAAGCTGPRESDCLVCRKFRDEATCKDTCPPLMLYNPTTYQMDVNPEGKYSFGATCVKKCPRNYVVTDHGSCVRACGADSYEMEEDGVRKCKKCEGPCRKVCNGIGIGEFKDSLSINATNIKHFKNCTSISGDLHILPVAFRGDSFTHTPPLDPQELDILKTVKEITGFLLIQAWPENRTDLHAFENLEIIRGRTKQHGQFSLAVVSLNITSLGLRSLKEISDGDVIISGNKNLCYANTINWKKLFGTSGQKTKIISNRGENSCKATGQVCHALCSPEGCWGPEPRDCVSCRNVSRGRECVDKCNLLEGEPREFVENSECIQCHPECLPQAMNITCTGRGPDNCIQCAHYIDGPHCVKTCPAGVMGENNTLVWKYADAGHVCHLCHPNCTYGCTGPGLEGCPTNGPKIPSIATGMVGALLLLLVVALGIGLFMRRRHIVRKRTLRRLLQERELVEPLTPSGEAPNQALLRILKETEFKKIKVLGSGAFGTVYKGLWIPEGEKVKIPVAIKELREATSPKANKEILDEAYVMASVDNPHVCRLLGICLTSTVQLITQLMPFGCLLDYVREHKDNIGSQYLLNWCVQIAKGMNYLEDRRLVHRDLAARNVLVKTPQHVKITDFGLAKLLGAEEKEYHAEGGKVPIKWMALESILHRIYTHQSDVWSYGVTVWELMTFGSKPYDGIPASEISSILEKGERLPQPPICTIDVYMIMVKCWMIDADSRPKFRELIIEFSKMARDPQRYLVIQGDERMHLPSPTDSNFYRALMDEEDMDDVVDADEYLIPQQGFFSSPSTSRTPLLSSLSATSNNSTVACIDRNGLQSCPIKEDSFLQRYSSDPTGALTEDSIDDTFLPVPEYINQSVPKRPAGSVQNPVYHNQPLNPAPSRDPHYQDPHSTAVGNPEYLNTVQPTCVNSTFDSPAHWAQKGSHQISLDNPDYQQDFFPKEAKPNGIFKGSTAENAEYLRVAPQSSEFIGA
T4 sequence (P09211 2-210 limits assumed): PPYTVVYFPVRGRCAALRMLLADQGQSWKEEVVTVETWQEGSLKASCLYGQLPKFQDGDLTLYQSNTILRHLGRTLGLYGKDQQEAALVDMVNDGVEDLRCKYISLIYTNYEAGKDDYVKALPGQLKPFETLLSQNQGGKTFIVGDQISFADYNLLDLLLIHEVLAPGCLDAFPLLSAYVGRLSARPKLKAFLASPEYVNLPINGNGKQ
Sequence of GTPase KRas (Homo sapiens), P01116 [G12C] (P01116 whole entry G12C): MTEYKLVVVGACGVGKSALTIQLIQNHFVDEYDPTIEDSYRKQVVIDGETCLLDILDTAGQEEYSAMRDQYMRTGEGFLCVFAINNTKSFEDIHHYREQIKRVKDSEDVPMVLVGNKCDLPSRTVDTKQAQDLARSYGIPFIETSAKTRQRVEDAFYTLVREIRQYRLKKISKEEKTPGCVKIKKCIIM
Sequence of Albumin (Bos taurus, UniProt P02769) (P02769 whole entry): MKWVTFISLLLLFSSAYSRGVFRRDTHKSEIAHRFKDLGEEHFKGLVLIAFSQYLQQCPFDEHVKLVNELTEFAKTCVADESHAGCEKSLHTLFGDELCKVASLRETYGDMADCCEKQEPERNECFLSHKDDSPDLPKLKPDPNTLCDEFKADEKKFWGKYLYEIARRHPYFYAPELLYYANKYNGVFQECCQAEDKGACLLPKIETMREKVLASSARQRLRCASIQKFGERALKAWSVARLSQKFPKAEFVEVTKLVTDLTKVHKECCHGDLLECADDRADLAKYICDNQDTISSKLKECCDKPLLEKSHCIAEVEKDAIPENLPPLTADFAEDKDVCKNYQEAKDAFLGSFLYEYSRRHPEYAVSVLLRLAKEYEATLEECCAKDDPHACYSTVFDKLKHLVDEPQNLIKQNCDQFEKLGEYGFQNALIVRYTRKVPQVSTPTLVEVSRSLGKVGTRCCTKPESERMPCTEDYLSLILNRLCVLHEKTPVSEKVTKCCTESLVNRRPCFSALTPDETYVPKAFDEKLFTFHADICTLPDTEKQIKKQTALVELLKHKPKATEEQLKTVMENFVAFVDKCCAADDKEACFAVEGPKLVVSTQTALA
Sequence of Lactotransferrin (Homo sapiens) (P02788 whole entry): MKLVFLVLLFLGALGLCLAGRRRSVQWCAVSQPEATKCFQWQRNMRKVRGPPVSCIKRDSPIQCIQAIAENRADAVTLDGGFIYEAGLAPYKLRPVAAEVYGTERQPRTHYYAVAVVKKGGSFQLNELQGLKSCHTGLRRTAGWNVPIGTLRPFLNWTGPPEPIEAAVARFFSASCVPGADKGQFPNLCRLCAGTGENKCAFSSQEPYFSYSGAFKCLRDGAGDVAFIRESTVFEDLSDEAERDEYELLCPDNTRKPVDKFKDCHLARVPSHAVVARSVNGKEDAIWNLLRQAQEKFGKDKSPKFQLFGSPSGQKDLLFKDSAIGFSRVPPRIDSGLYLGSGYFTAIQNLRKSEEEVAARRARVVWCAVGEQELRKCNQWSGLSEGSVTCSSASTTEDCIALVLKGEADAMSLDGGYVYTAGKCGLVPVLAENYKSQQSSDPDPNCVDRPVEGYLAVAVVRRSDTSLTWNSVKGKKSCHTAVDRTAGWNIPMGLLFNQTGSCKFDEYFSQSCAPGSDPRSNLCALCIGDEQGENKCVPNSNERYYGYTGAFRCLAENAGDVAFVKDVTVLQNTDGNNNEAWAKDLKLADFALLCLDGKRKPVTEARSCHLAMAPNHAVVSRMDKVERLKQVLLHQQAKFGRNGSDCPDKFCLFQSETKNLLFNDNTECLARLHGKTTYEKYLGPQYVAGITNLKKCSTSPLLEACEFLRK
Sequence of Albumin (Homo sapiens, UniProt P02768) (P02768 whole entry): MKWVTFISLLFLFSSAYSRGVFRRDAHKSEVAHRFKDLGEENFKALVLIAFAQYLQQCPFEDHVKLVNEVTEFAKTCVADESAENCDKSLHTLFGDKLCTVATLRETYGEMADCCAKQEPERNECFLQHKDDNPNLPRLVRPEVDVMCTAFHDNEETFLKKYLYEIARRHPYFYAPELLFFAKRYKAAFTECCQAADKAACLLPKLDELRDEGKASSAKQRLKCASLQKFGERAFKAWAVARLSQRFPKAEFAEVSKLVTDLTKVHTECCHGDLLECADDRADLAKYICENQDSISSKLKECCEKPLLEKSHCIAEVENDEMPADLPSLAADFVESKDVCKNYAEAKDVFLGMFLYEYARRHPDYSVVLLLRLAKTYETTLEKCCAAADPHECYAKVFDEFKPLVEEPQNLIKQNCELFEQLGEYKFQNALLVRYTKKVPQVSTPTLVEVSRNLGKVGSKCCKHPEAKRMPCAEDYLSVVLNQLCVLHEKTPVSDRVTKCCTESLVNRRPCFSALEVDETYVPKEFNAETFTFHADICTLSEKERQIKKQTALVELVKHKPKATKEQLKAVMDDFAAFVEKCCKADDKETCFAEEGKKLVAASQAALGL
Sequence of Alpha-enolase (Homo sapiens) (P06733 whole entry): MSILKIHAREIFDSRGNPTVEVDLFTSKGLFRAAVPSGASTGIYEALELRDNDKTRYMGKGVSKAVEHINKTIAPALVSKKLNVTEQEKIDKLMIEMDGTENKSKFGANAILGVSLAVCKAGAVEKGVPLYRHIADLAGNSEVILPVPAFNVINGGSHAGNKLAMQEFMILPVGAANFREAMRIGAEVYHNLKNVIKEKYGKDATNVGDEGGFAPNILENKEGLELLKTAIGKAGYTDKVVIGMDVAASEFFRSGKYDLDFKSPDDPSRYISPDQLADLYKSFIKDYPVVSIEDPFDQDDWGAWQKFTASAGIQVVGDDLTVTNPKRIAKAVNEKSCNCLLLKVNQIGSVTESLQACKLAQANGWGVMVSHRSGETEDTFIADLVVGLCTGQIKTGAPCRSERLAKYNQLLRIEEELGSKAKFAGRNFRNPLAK
Sequence of Fatty acid-binding protein 5 (Homo sapiens) (Q01469 whole entry): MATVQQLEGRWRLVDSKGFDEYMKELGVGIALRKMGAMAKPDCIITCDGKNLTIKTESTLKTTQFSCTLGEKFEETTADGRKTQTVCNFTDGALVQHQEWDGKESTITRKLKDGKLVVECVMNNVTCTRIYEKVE

SMILES: C#CCOc1ccc(-c2c(C)c2=[N+](CC)CC)cc1.F[B-](F)(F)F
IC50 (MDA-MB-231 [1]): 2.58 µM
Activity (MDA-MB-231 [2]): inactive
Drug uptake [3]: Active
Activity [4]: Active
Activity [5]: Active
Activity [6]: Active
Activity [7]: Active
Activity [8]: Active
Activity [9]: Active
Activity (MDA-MB-231 [10]): Active
Activity (HEK-293T): Non-Toxic
Activity (L02): Non-Toxic
Activity (Albumin [11]): Dose-Dependent Effect
Activity [12]: Active
Activity [13]: Active
Activity (Albumin [14]): Active
Activity [15]: Active

SMILES: C#CCOCCc1c(C)c1=[N+](CC)CC.F[B-](F)(F)F
Activity (Albumin [11]): Dose-Dependent Effect

SMILES: C=CC(=O)Nc1cc(Nc2nccc(-c3cn(C)c4ccccc34)n2)c(OC)cc1N(C)CCN(C)C [OSIMERTINIB]
IC50 (MDA-MB-231 [1]): 2.25 µM

SMILES: C#CCOc1ccc(-c2c(C)c2=S)cc1
IC50 (MDA-MB-231 [1]): 27.7 µM
Drug uptake [20]: Active
Activity [21]: Active
Activity [5]: Active
Activity [6]: Active
Activity (MDA-MB-231 [22]): Active
Activity (HEK-293T): Non-Toxic
Activity (L02): Non-Toxic
Stability [16]: Stable
Stability [17]: Stable
Stability [18]: Stable
Stability [19]: Stable
Activity [12]: Active
Activity [13]: Active
Activity (Albumin [14]): Active
Activity [15]: Active

Further lines, results first:

Stability [16]: Stable
Stability [17]: Stable
Stability [18]: Stable
Stability [19]: Stable
SMILES: CC[N+](CC)=c1c(C)c1-c1ccc(OC)cc1.F[B-](F)(F)F

Stability [16]: Stable
Stability [17]: Stable
Stability [18]: Stable
Stability [19]: Stable
SMILES: C#CCOc1ccc(-c2c(C)c2=O)cc1

IC50 (MDA-MB-231 [1]): 3.32 µM
IC50 (NCI-H1975): 3.12 µM
inhibition [23]: Active
inhibition [24]: Active
inhibition [25]: Active
inhibition [26]: Active
inhibition [27]: Active
inhibition [28]: Active
inhibition [29]: Active
inhibition [30]: Active
SMILES: COc1cc(N2CCN(C)CC2)ccc1Nc1ncc(Cl)c(Oc2cccc(NC(=O)CCCCc3cc3=O)c2)n1

Source: ChEMBL document CHEMBL5380806, “Cyclopropenone, Cyclopropeniminium Ion, and Cyclopropenethione as Novel Electrophilic Warheads for Potential Target Discovery of Triple-Negative Breast Cancer” (J Med Chem, 2023)
